Source: paper PMC9502272, “A Metabolomics Approach for Predicting OATP1B-Type Transporter-Mediated Drug–Drug Interaction Liabilities” (Pharmaceutics, 2022)
Several values for one entry are separate records, joined by “and”; a condition that tells them apart may be missing. Identical values can stand only once.

Key:
[1] = system: Oatp1a/1b; assay: Baseline plasma biomarker levels in Oatp1a/1b(−/−) cluster-knockout vs wild-type mice; assay type: in vivo, mouse; settings: n = 6–10 per group
Description: Plasma concentrations of levels of CDCA-24G and glycochenodeoxycholate-3-sulfate (GCDCA-S) were determined using LC-MS/MS using a Vanquish UHPLC coupled with a Quantiva triple quadrupole mass spectrometer (Thermo Fisher Scientific, Waltham, MA, USA). An Accucore aQ column (50 × 2.1 mm, dp = 2.6 μm; Thermo Fisher Scientific) was protected by a C18 AQUASIL guard cartridge (2.1 mm × 10 mm, dp = 3 μm; Thermo Fisher Scientific). The injection volume of sample was 5.0 μL. The temperature of the autosampler rack was 4 °C, and the temperature of the column was maintained at 20 °C. The mobile phase was composed of solvent A (2 mmol ammonium acetate in water) and solvent B (100% methanol), and the total run time was 4.6 min. The gradient conditions were as follows: 0–0.5 min, 45% B; 0.5–2.0 min, 45 to 90%, 2.0–4.0 min, 90% B; 4.0–4.6 min, 45% B, delivered at a flow rate of 0.4 mL/min. The MS assay setting with the positive voltage applied to the ESI capillary was set at 3791 V, and the capillary temperatures was 335 °C with a vaporizer temperature of 350 °C. Argon was used as the collision gas at a pressure of 1.5 mTorr. Precursor molecular ions, and product ions were recorded for the confirmation and detection of GCDCA-S (528.4 > 448.3) and CDCA-24G (567.4 > 391.1), using [^2H5]-GCDCA-S (535.5 > 453.3) and [^2H5]-CDCA-24G (572.5 > 396.1) as respective internal standards. The lower limit of quantitation (LLOQ) for both analytes was determined to be 0.5 ng/mL. […]
Plasma concentrations of coproporphyrin I (CP-I) and III (CP-III) were determined similarly by LC-MS/MS. […] Precursor molecular ions and product ions were recorded for confirmation and detection of CP-I (655.4 > 596.4) and CP-III (655.4 > 596.3), using [^2H4]-CP-III (659.4 > 600.3) as the internal standard for both analytes. The LLOQ for both analytes were determined to be 1 ng/mL, and the within-run and between-run precisions as well as the accuracy were always within acceptable limits.

[2] = target: T1, Oatp1b2 (Mus musculus, UniProt Q9JJL3); assay: Uptake in HEK293 cells overexpressing Oatp1b2; assay type: cell-based; design: from tissue; hepatic transporter in vivo; settings: HEK293 cells overexpressing Oatp1b2, 5 min uptake, vs empty vector
T1 sequence (Q9JJL3 1-689): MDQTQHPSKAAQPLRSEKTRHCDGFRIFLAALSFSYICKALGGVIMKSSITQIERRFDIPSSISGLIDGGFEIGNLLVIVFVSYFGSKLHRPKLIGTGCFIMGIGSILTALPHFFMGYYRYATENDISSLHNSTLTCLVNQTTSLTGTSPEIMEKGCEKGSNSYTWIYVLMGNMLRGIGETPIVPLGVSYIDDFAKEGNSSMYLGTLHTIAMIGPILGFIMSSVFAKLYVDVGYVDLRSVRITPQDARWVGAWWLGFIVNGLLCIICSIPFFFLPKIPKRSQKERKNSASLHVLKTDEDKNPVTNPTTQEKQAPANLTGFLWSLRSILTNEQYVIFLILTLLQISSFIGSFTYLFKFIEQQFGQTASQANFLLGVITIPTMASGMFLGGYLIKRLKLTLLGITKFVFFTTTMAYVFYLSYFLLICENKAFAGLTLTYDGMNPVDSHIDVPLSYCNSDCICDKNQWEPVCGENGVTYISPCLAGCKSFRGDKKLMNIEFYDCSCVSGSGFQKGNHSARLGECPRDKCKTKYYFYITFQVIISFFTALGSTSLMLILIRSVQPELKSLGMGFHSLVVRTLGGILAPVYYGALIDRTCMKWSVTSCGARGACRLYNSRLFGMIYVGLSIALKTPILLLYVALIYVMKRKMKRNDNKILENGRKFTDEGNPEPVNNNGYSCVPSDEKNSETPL
Description: The generation of human embryonic kidney (HEK293) cells (ATCC) engineered to overexpress OATP1B1, Oatp1b2, or empty vector, the cell culture conditions, and general details of uptake studies have been reported in detail elsewhere. Briefly, cells were grown to 90% confluence on poly-lysine coated multi-well plates. […] The pre-treatment medium was rinsed off with warm 1× PBS followed by the addition of the test compounds for an incubation period of 5 min. After incubation, transport was halted by aspirating the medium and rinsing the cells three times with ice-cold 1× PBS. After lysing cells with 0.1 N HCl, and subsequent adding methanol, 20 μL aliquots were mixed with 60 μL of acetonitrile containing relevant internal standards. After vortex mixing, the mixtures were centrifuged, and the supernatants were used for quantitative analysis by LC-MS/MS. Drug uptake results were normalized to total protein content and then to data obtained in cells carrying an empty vector plasmid, which was set to 100%.

[3] = target: T1, Oatp1b2; assay: Untargeted metabolomics of plasma from untreated wild-type and Oatp1b2(−/−) mice
Description: For all experiments, age- and sex-matched mice (8–12 weeks old) were used. […] Mice with a deficiency of Oatp1b2 (Oatp1b2(−/−) mice), the single murine orthologue of OATP1B1 and OATP1B3 in humans, on a DBA/1LacJ background were kindly provided by Drs. Richard B. Kim (Western University, London, Ontario, Canada) and Jeffrey L. Stock (Pfizer, Groton, CT, USA).
Plasma samples from untreated wild-type mice and Oatp1b2(−/−) mice were analyzed for structurally named and unknown molecules using a non-targeted semi-quantitative liquid chromatography-tandem mass spectrometry (LC-MS/MS) and gas chromatography-mass spectrometry platforms (Metabolon, Durham, NC, USA). Compounds were identified by comparison with library entries of purified standards or recurrent unknown entities.

C[C@H](CCC(=O)O[C@@H]1O[C@H](C(=O)O)[C@@H](O)[C@H](O)[C@H]1O)[C@H]1CC[C@H]2[C@@H]3[C@H](O)C[C@@H]4C[C@H](O)CC[C@]4(C)[C@H]3CC[C@]12C [CDCA-24G, chenodeoxycholate-24-glucuronide]
Plasma concentration of CDCA-24G in Oatp1a/1b(−/−) mice relative to wild type [1]: 83 fold and > 80 fold
Transport by murine OATP1B-type transporter [2]: efficiently transported
Increase of plasma level in Oatp1b2(−/−) mice vs. wild-type mice ([3]; based on semi-quantitative analysis): ≈ 98 fold
Fold of Change KO/WT ([3]; plasma of untreated Oatp1b2-deficient (KO) vs wild-type (WT) mice, semi-quantitative, positive = higher in KO, n = 6 per group): 97.9
Mean value KO ([3]; plasma of untreated Oatp1b2-deficient mice, raw area counts rescaled to median = 1): 1.15
Mean value WT ([3]; plasma of untreated wild-type mice, raw area counts rescaled to median = 1): .0120
